# Laboratory results reported in ChEMBL document CHEMBL5512674, “Novel Acyl Thiourea-Based Hydrophobic Tagging Degraders Exert Potent Anti-Influenza Activity through Two Distinct Endonuclease Polymerase Acidic-Targeted Degradation Pathways” (J Med Chem, 2024).
# The source made the active and inactive calls. No cut-off for these calls is given here.
# How the values were obtained:
# [1] = Half life in mouse liver microsomes preincubated for 5 mins followed by NADPH addition and measured for 45 mins by LC-MS analysis; type: ADME, Microsome; conditions: time 50 min
# [2] = biological target: T1, von Hippel-Lindau disease tumor suppressor/Polymerase acidic protein (Influenza A virus (A/Puerto Rico/8/1934(H1N1))) (UniProt P03433+P40337); assay: PROTAC activity at Influenza A virus A/WSN/33(H1N1) flag tagged Polymerase acidic protein/VHL (unknown origin) expressed in HEK293T cells assessed as degradation of PA expression at 5 uM incubated for 24 hrs in presence of proteasome inhibitor MG-132 by Western blotting analysis; type: cell-based
# [3] = system: Influenza A virus; assay: Anti-influenza activity against Influenza A virus H3N2 infected in HEK293T cells assessed as reduction in virus-induced cytopathic effect incubated for 48 hrs by CCK-8 assay; type: functional, organism-based; conditions: H3N2, HEK-293T
# [4] = biological target: T2, von Hippel-Lindau disease tumor suppressor/Polymerase basic protein 2 (Influenza A virus (strain A/Puerto Rico/8/1934 H1N1)) (UniProt P40337+P03428); assay: PROTAC activity at Influenza A virus A/WSN/33(H1N1) flag tagged Polymerase basic protein 2/VHL (unknown origin) expressed in HEK293T cells assessed as degradation of PB2 expression at 0.1 to 10 uM incubated for 24 hrs by Western blotting analysis; type: cell-based; conditions: dose 0.1-10 µM
# [5] = biological target: T1, von Hippel-Lindau disease tumor suppressor/Polymerase acidic protein (Influenza A virus (A/Puerto Rico/8/1934(H1N1))); assay: PROTAC activity at Influenza A virus A/WSN/33(H1N1) flag tagged Polymerase acidic protein/VHL (unknown origin) expressed in HEK293T cells assessed as degradation of PA expression at 5 uM incubated for 24 hrs in presence of chloroquine by Western blotting analysis; type: cell-based
# [6] = biological target: T3, von Hippel-Lindau disease tumor suppressor/Polymerase basic protein 1 (Influenza A virus (strain A/Puerto Rico/8/1934 H1N1)) (UniProt P03431+P40337); assay: PROTAC activity at Influenza A virus A/WSN/33(H1N1) flag tagged Polymerase basic protein 1/VHL (unknown origin) expressed in HEK293T cells assessed as degradation of PB1 expression at 0.1 to 10 uM incubated for 24 hrs by Western blotting analysis; type: cell-based; conditions: dose 0.1-10 µM
# [7] = Intrinsic clearance in human liver microsomes preincubated for 5 mins followed by NADPH addition and measured for 45 mins by LC-MS analysis; type: ADME, Microsome; conditions: time 50 min, read-out: CLH
# [8] = Hepatic clearance in human liver microsomes preincubated for 5 mins followed by NADPH addition and measured for 45 mins by LC-MS analysis; type: ADME, Microsome; conditions: time 50 min
# [9] = Stability in human plasma assessed as compound remaining measured after 60 mins by LC-MS/MS analysis; type: ADME, cell-free; conditions: read-out: Stability
# [10] = Binding affinity to Influenza A virus A/WSN/33(H1N1) flag tagged Polymerase acidic protein assessed as dissociation constant incubated for 48 hrs by microscale thermophoresis assay; conditions: hek293t
# [11] = biological target: von Hippel-Lindau disease tumor suppressor/Polymerase acidic protein (Influenza A virus (A/Puerto Rico/8/1934(H1N1)), UniProt P03433+P40337); assay: PROTAC activity at Influenza A virus A/WSN/33(H1N1) flag tagged Polymerase acidic protein/VHL (unknown origin) expressed in HEK293T cells assessed as degradation of PA expression incubated for 24 hrs by Western blotting analysis; type: cell-based
# [12] = system: Enterovirus; assay: Antiviral activity against Enterovirus CV-B1 infected in RD cells assessed as inhibition of viral replication incubated for 24 hrs by CCK-8 assay; type: functional, organism-based
# [13] = system: Influenza A virus; assay: Anti-influenza activity against Influenza A virus A/WSN/33(H1N1) infected in HEK293T cells assessed as reduction in virus-induced cytopathic effect incubated for 48 hrs by CCK-8 assay; type: functional, organism-based; conditions: HEK-293T
# [14] = biological target: T3, von Hippel-Lindau disease tumor suppressor/Polymerase basic protein 1 (Influenza A virus (strain A/Puerto Rico/8/1934 H1N1)); assay: PROTAC activity at Influenza A virus A/WSN/33(H1N1) flag tagged Polymerase basic protein 1/VHL (unknown origin) expressed in HEK293T cells assessed as degradation of PB1 expression at 1 ug/ml incubated for 24 hrs by Western blotting analysis; type: cell-based; conditions: dose 1.0 µg/ml
# [15] = biological target: T3, von Hippel-Lindau disease tumor suppressor/Polymerase basic protein 1 (Influenza A virus (strain A/Puerto Rico/8/1934 H1N1)); assay: PROTAC activity at Influenza A virus A/WSN/33(H1N1) flag tagged Polymerase basic protein 1/VHL (unknown origin) expressed in HEK293T cells assessed as degradation of PB1 expression at 10 ug/ml incubated for 24 hrs by Western blotting analysis; type: cell-based; conditions: dose 10.0 µg/ml
# [16] = biological target: T1, von Hippel-Lindau disease tumor suppressor/Polymerase acidic protein (Influenza A virus (A/Puerto Rico/8/1934(H1N1))); assay: PROTAC activity at Influenza A virus A/WSN/33(H1N1) flag tagged Polymerase acidic protein/VHL (unknown origin) expressed in HEK293T cells assessed as degradation of PA expression at 10 uM incubated for 72 hrs by Western blotting analysis; type: cell-based
# [17] = system: Influenza A virus; assay: Anti-influenza activity against Influenza A virus A/PR/8/34 (H1N1) infected in MDCK cells assessed as inhibition of viral growth at 0.8 nM incubated for 48 hrs by luciferase assay relative to control; type: functional
# [18] = Half life in human plasma by LC-MS/MS analysis; type: ADME, cell-free
# [19] = Hepatic extraction ratio in dog liver microsomes preincubated for 5 mins followed by NADPH addition and measured for 45 mins by LC-MS analysis; type: ADME, Canis lupus familiaris, Microsome; conditions: time 50 min, read-out: ERH
# [20] = Stability in human plasma assessed as compound remaining measured after 120 mins by LC-MS/MS analysis; type: ADME, cell-free; conditions: read-out: Stability
# [21] = system: Enterovirus; assay: Antiviral activity against Enterovirus 71 infected in RD cells assessed as inhibition of viral replication incubated for 24 hrs by CCK-8 assay; type: functional, organism-based
# [22] = Intrinsic clearance in mouse liver microsomes preincubated for 5 mins followed by NADPH addition and measured for 45 mins by LC-MS analysis; type: ADME, Microsome; conditions: time 50 min, read-out: CLH
# [23] = biological target: T2, von Hippel-Lindau disease tumor suppressor/Polymerase basic protein 2 (Influenza A virus (strain A/Puerto Rico/8/1934 H1N1)); assay: PROTAC activity at Influenza A virus A/WSN/33(H1N1) flag tagged Polymerase basic protein 2/VHL (unknown origin) expressed in HEK293T cells assessed as degradation of PB2 expression at 10 ug/ml incubated for 24 hrs by Western blotting analysis; type: cell-based; conditions: dose 10.0 µg/ml
# [24] = biological target: T1, von Hippel-Lindau disease tumor suppressor/Polymerase acidic protein (Influenza A virus (A/Puerto Rico/8/1934(H1N1))); assay: PROTAC activity at Influenza A virus A/WSN/33(H1N1) flag tagged Polymerase acidic protein/VHL (unknown origin) expressed in HEK293T cells assessed as degradation of PA expression at 5 uM incubated for 24 hrs by Western blotting analysis; type: cell-based
smiles,measurement,setting,value
CC(C)(C)OC(=O)NCCCC[C@H](NC(=O)OC(C)(C)C)C(=O)NCCCCCCCC(=O)Nc1ccc(NC(=S)NC(=O)c2ccc(C(C)(C)C)cc2)cc1,half-life,[1],0.535 h
same,Activity,[2],inactive
same,EC50,[3],36 nM
same,Activity,[4],inactive
same,Activity,[5],inactive
same,Activity,[6],inactive
same,CLint scaled,[7],137 mL/min/kg
same,CLhep predicted,[8],18 mL/min/kg
same,remaining at 1 h,[9],96.9%
same,Kd,[10],720 nM
same,DC50,[11],60 nM
same,Activity,[12],Active
same,EC50,[13],15 nM
same,Activity,[14],inactive
same,Activity,[15],inactive
same,Activity,[16],Active
same,inhibition at 0.0008 µM,[17],82%
same,half-life,[18],4.09 h
same,hepatic extraction ratio at 0.75 h,[19],0.851
same,remaining at 2 h,[20],72%
same,Activity,[21],Active
same,CLint scaled,[22],170 mL/min/kg
same,Activity,[23],inactive
same,Activity,[24],Active
